Measurements: PubChem BioAssay (NCI)
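Test compounds were applied to cells in 96-well plates for 48 hours at 5 doses. GI50: concentration for 50% inhibition of growth. TGI is the concentration that stops growth completely.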

Experiments:
Test in all cases: DTP human tumour cell line panel, 48 h
HCC-2998 colon = system: HCC-2998 colon
MDA-MB-231 breast = system: MDA-MB-231 breast
COLO 205 colon = system: COLO 205 colon
CCRF-CEM leukemia = system: CCRF-CEM leukemia
TK-10 renal = system: TK-10 renal
NCI-H226 lung = system: NCI-H226 lung
HOP-62 NSCLC = system: HOP-62 NSCLC
SF-268 CNS = system: SF-268 CNS
A549 NSCLC = system: A549 NSCLC
U251 CNS = system: U251 CNS
SNB-19 CNS = system: SNB-19 CNS
EKVX NSCLC = system: EKVX NSCLC
HCT-116 colon = system: HCT-116 colon
UACC-257 melanoma = system: UACC-257 melanoma
ACHN renal = system: ACHN renal
NCI-H23 lung = system: NCI-H23 lung
M14 melanoma = system: M14 melanoma
786-0 renal = system: 786-0 renal
SF-539 CNS = system: SF-539 CNS
SW-620 colon = system: SW-620 colon
HT29 colon = system: HT29 colon
SR leukemia = system: SR leukemia
MALME-3M melanoma = system: MALME-3M melanoma
OVCAR-3 ovarian = system: OVCAR-3 ovarian
NCI-H522 lung = system: NCI-H522 lung
IGROV1 ovarian = system: IGROV1 ovarian
RXF 393 renal = system: RXF 393 renal
MCF7 breast = system: MCF7 breast
UO-31 renal = system: UO-31 renal
MOLT-4 leukemia = system: MOLT-4 leukemia
PC-3 prostate = system: PC-3 prostate
BT-549 breast = system: BT-549 breast
UACC-62 melanoma = system: UACC-62 melanoma
RPMI-8226 leukemia = system: RPMI-8226 leukemia
K-562 leukemia = system: K-562 leukemia
OVCAR-8 ovarian = system: OVCAR-8 ovarian
OVCAR-4 ovarian = system: OVCAR-4 ovarian
KM12 colon = system: KM12 colon
LOX IMVI melanoma = system: LOX IMVI melanoma
HL-60(TB) leukemia = system: HL-60(TB) leukemia
CAKI-1 renal = system: CAKI-1 renal
NCI/ADR-RES ovarian = system: NCI/ADR-RES ovarian
SNB-75 CNS = system: SNB-75 CNS
A498 renal = system: A498 renal
HOP-92 NSCLC = system: HOP-92 NSCLC
SK-MEL-28 melanoma = system: SK-MEL-28 melanoma
SK-MEL-5 melanoma = system: SK-MEL-5 melanoma
HCT-15 colon = system: HCT-15 colon
OVCAR-5 ovarian = system: OVCAR-5 ovarian
MDA-MB-435 = system: MDA-MB-435
SK-MEL-2 melanoma = system: SK-MEL-2 melanoma
HS 578T breast = system: HS 578T breast
T-47D breast = system: T-47D breast
NCI-H460 lung = system: NCI-H460 lung
SK-OV-3 ovarian = system: SK-OV-3 ovarian
DU-145 prostate = system: DU-145 prostate
SF-295 CNS = system: SF-295 CNS
SN12C renal = system: SN12C renal

Cc1sc2nc(NCCc3c[nH]c4ccc(Cl)cc34)[nH]c(=O)c2c1C
GI50 (HCC-2998 colon): 2.39 µM
TGI (HCC-2998 colon): 5.71 µM
GI50 (MDA-MB-231 breast): 2.59 µM
TGI (MDA-MB-231 breast): 8.74 µM
GI50 (COLO 205 colon): 1.74 µM
TGI (COLO 205 colon): 3.77 µM
GI50 (CCRF-CEM leukemia): 2.63 µM
TGI (CCRF-CEM leukemia): 14.2 µM
GI50 (TK-10 renal): 3.5 µM
TGI (TK-10 renal): 11.5 µM
GI50 (NCI-H226 lung): 3.18 µM
TGI (NCI-H226 lung): 17.4 µM
GI50 (HOP-62 NSCLC): 2.52 µM
TGI (HOP-62 NSCLC): 10.4 µM
GI50 (SF-268 CNS): 2.28 µM
TGI (SF-268 CNS): 8.13 µM
GI50 (A549 NSCLC): 2.13 µM
TGI (A549 NSCLC): 5.09 µM
GI50 (U251 CNS): 2.26 µM
TGI (U251 CNS): 6.94 µM
GI50 (SNB-19 CNS): 3.54 µM
TGI (SNB-19 CNS): 13.2 µM
GI50 (EKVX NSCLC): 2.76 µM
GI50 (HCT-116 colon): 1.84 µM
TGI (HCT-116 colon): 7.07 µM
GI50 (UACC-257 melanoma): 2.14 µM
TGI (UACC-257 melanoma): 6.34 µM
GI50 (ACHN renal): 1.93 µM
TGI (ACHN renal): 4.47 µM
GI50 (NCI-H23 lung): 2.39 µM
TGI (NCI-H23 lung): 6.22 µM
GI50 (M14 melanoma): 2.4 µM
TGI (M14 melanoma): 9.49 µM
GI50 (786-0 renal): 2.39 µM
TGI (786-0 renal): 6.23 µM
GI50 (SF-539 CNS): 3.37 µM
TGI (SF-539 CNS): 13.4 µM
GI50 (SW-620 colon): 2.64 µM
TGI (SW-620 colon): 10.9 µM
GI50 (HT29 colon): 3.06 µM
TGI (HT29 colon): 10.8 µM
GI50 (SR leukemia): 1.81 µM
TGI (SR leukemia): 8.52 µM
GI50 (MALME-3M melanoma): 2.38 µM
TGI (MALME-3M melanoma): 7.45 µM
GI50 (OVCAR-3 ovarian): 3.26 µM
TGI (OVCAR-3 ovarian): 12.7 µM
GI50 (NCI-H522 lung): 1.79 µM
TGI (NCI-H522 lung): 3.91 µM
GI50 (IGROV1 ovarian): 3.12 µM
TGI (IGROV1 ovarian): 13.1 µM
GI50 (RXF 393 renal): 1.79 µM
TGI (RXF 393 renal): 3.41 µM
GI50 (MCF7 breast): 2.47 µM
TGI (MCF7 breast): 7 µM
GI50 (UO-31 renal): 1.22 µM
TGI (UO-31 renal): 2.77 µM
GI50 (MOLT-4 leukemia): 2.22 µM
TGI (MOLT-4 leukemia): 7.27 µM
GI50 (PC-3 prostate): 2.05 µM
TGI (PC-3 prostate): 8.91 µM
GI50 (BT-549 breast): 2.55 µM
TGI (BT-549 breast): 9.95 µM
GI50 (UACC-62 melanoma): 2.96 µM
TGI (UACC-62 melanoma): 12.7 µM
GI50 (RPMI-8226 leukemia): 2.45 µM
TGI (RPMI-8226 leukemia): 7.9 µM
GI50 (K-562 leukemia): 3.03 µM
TGI (K-562 leukemia): 10.7 µM
GI50 (OVCAR-8 ovarian): 2.12 µM
TGI (OVCAR-8 ovarian): 5.69 µM
GI50 (OVCAR-4 ovarian): 3.27 µM
TGI (OVCAR-4 ovarian): 13.4 µM
GI50 (KM12 colon): 2.17 µM
TGI (KM12 colon): 5.54 µM
GI50 (LOX IMVI melanoma): 1.87 µM
TGI (LOX IMVI melanoma): 3.68 µM
GI50 (HL-60(TB) leukemia): 2.34 µM
TGI (HL-60(TB) leukemia): 5.91 µM
GI50 (CAKI-1 renal): 1.5 µM
TGI (CAKI-1 renal): 3.7 µM
GI50 (NCI/ADR-RES ovarian): 3.07 µM
TGI (NCI/ADR-RES ovarian): 15.6 µM
GI50 (SNB-75 CNS): 1.65 µM
TGI (SNB-75 CNS): 5.21 µM
GI50 (A498 renal): 1.8 µM
TGI (A498 renal): 4.15 µM
GI50 (HOP-92 NSCLC): 2.06 µM
TGI (HOP-92 NSCLC): 5.64 µM
GI50 (SK-MEL-28 melanoma): 4.08 µM
TGI (SK-MEL-28 melanoma): 15.7 µM
GI50 (SK-MEL-5 melanoma): 1.98 µM
TGI (SK-MEL-5 melanoma): 3.88 µM
GI50 (HCT-15 colon): 1.52 µM
TGI (HCT-15 colon): 11.2 µM
GI50 (OVCAR-5 ovarian): 2.97 µM
TGI (OVCAR-5 ovarian): 11.7 µM
GI50 (MDA-MB-435): 3.31 µM
TGI (MDA-MB-435): 11.3 µM
GI50 (SK-MEL-2 melanoma): 2.62 µM
TGI (SK-MEL-2 melanoma): 9.29 µM
GI50 (HS 578T breast): 1.86 µM
TGI (HS 578T breast): 6.25 µM
GI50 (T-47D breast): 2.98 µM
TGI (T-47D breast): 12.7 µM
GI50 (NCI-H460 lung): 2.54 µM
TGI (NCI-H460 lung): 7.95 µM
GI50 (SK-OV-3 ovarian): 3.22 µM
TGI (SK-OV-3 ovarian): 14.5 µM
GI50 (DU-145 prostate): 3.59 µM
TGI (DU-145 prostate): 13 µM
GI50 (SF-295 CNS): 3.53 µM
TGI (SF-295 CNS): 13.4 µM
GI50 (SN12C renal): 2.38 µM
TGI (SN12C renal): 6.59 µM
